Laboratory results published in US20240424048A1, “CHINESE MEDICINE FORMULA FOR TREATING TUMORS AND/OR PULMONARY NODULES AND PREPARATION METHOD THEREOF” (priority 2023, published 2024).
Where two headings read alike, the source gives them in different places. Marks after values point to notes of the source that are not given here.

Columns and labels:
[1] = system: Lewis lung cancer lung metastasis; type: in vivo, mouse; conditions: 15 mg/kg; for Number of pulmonary nodules: after 21 days of administration
Procedure: (§1) a first batch of experiments: C57BL/6 mice were randomly divided into 6 groups according to body weight. • Saline control group administered with physiological saline 20 ml/kg • Solvent control group administered with 35-degree white wine 20 ml/kg • Cyclophosphamide administered with 0.075% 15 mg/20 group cyclophosphamide ml/kg • Low dose group of anti-administered with 20% anti-lung cancer 4 ml/20 lung cancer vinum ml/kg • Mid dose group of anti-administered with 40% anti-lung cancer 8 ml/20 lung cancer vinum ml/kg • High dose group of anti-Administered with 80% anti-lung 16 ml/20 m lung cancer vinum cancer vinum l/kg • a second batch of experiments: randomly divided into 6 groups based on body weight: • Saline control group administered with physiological saline 20 ml/kg • Solvent control group administered with 35-degree white wine 20 ml/kg • Cyclophosphamide administered with 0.075% 15 mg/20 group cyclophosphamide ml/kg • Low dose group of anti-administered with 10% anti-lung cancer 2 ml/20 lung cancer vinum ml/kg • Mid dose group of anti-administered with 20% anti-lung cancer 4 ml/20 lung cancer vinum ml/kg • High dose group of anti-administered with 40% anti-lung cancer 8 ml/20 lung cancer vinum ml/kg
C57BL/6 mice were adaptively fed for 3-5 days, and an in vivo transplant tumor model was prepared using anti-tumor drug experimental methods. Each mouse was subcutaneously injected with 0.2 ml of cell suspension with a concentration of 2×10^7 cells/mL. […]
The first batch of experiments: measure a tumor volume and plot a tumor growth curve once on the 8th, 10th, 12th, and 14th day of administration; after 14 days of administration, 10 mice in each group were weighed and euthanized. Tumors, spleens, lungs, and thymus were removed, weighed, tumor inhibition rate and organ coefficient were calculated; after 21 days of administration, 6 mice in each group were perfused with physiological saline and their lungs were removed, fixed with Bouin solution and the number of metastatic lung nodules was examined under a microscope. […]

[2] = 15 mg/kg
Procedure: as §1
(§2) C57BL/6 mice were adaptively fed for 3-5 days, and an in vivo transplant tumor model was prepared using anti-tumor drug experimental methods. Each mouse was subcutaneously injected with 0.2 ml of cell suspension with a concentration of 2×10^7 cells/mL. On the second day, they were randomly divided into 6 groups based on body weight, with 20 mice in each group. Each group started administration the next day after tumor inoculation, and the drugs in each group were freshly prepared and administered at a dose of […], twice a day for 14, 16, or 21 consecutive days.
(§3) The first batch of experiments: measure a tumor volume and plot a tumor growth curve once on the 8th, 10th, 12th, and 14th day of administration; after 14 days of administration, 10 mice in each group were weighed and euthanized. Tumors, spleens, lungs, and thymus were removed, weighed, tumor inhibition rate and organ coefficient were calculated; after 21 days of administration, 6 mice in each group were perfused with physiological saline and their lungs were removed, fixed with Bouin solution and the number of metastatic lung nodules was examined under a microscope.
(§4) The second batch of experiments: measure the tumor volume and plot the tumor growth curve once on the 8th, 10th, 12th, 14th, and 16th day of administration; after 16 days of administration, 12 mice in each group were weighed and euthanized. Tumors, spleens, lungs, and thymus were removed, weighed, and the tumor inhibition rate and organ coefficient were calculated; after 21 days of administration, 6 mice in each group were perfused with physiological saline and their lungs were removed, fixed with Bouis solution and the number of metastatic lung nodules was examined under the microscope.

Lewis lung cancer = type: in vivo, mouse; conditions: 15 mg/kg
Description: C57BL/6 mice, 6-8 weeks old, weighing 19-21 g, male, provided by Liaoning Changsheng Biotechnology Co., Ltd., certificate number: SYSK (Ji) 2018-0001. Two batches of experiments all used male C57BL/6 mice, which were adaptively raised in a laboratory for 3-5 days before the experiment.
Mouse Lewis lung cancer cells were provided by Jilin Cancer Research Institute and passaged and preserved in the laboratory. Lewis lung cancer cells were resuscitated, cells were expanded to 2-3×10^8 cells/mL, cells were collected, and cell density was adjusted to 2×10^7 cells/mL.
as §1, §2, §3, §4

[3] = first batch, after 14 days of administration
[4] = second batch, after 16 days of administration

O=P1(N(CCCl)CCCl)NCCCO1 (centres unmarked) [Cyclophosphamide]
Effect on lung metastasis in Lewis lung cancer mice ([1]; continuous administration for 21 days): can inhibit lung metastasis | Number of pulmonary nodules ([1]; first batch): 6.17 ± 1.94 | Number of pulmonary nodules ([1]; second batch): 6.67 ± 1.21 | Toxicity (body weight, thymic coefficient, spleen coefficient of mice) [2]: significant toxic effects | Weight before administration ([2]; first batch, Table 3): 20.30 ± 1.33 g | Lung coefficient [2, 3]: 7.26 ± 0.85 | Spleen coefficient [2, 3]: 3.40 ± 1.02 | Thymic coefficient [2, 3]: 1.11 ± 0.35 | Weight after administration [2, 3]: 20.30 ± 1.33 g | Weight after administration ([2]; first batch, after 21 days of administration): 21.81 ± 1.37 g | Weight after administration [2, 4]: 21.58 ± 0.79 g | Lung coefficient [2, 4]: 6.66 ± 0.72 | Spleen coefficient [2, 4]: 3.62 ± 0.86 | Thymic coefficient [2, 4]: 0.47 ± 0.16 | Weight after administration ([2]; second batch, after 21 days of administration): 22.02 ± 1.71 g | Volume of tumor (Lewis lung cancer; first batch, 8 days): 61.08##** mm^3 | Volume of tumor (Lewis lung cancer; first batch, 10 days): 244.09##** mm^3 | Volume of tumor (Lewis lung cancer; first batch, 12 days): 817.83##** mm^3 | Volume of tumor (Lewis lung cancer; first batch, 14 days): 953.67##** mm^3 | Tumor inhibition rate (Lewis lung cancer; [3]): 63.52% | Weight of tumor (Lewis lung cancer; [3]): 0.59 ± 0.26 g | Volume of tumor (Lewis lung cancer; second batch, 8 days): 111.30##** mm^3 | Volume of tumor (Lewis lung cancer; second batch, 10 days): 165.52##** mm^3 | Volume of tumor (Lewis lung cancer; second batch, 12 days): 278.25##** mm^3 | Volume of tumor (Lewis lung cancer; second batch, 14 days): 371.57##** mm^3 | Volume of tumor (Lewis lung cancer; second batch, 16 days): 461.54##** mm^3 | Tumor inhibition rate (Lewis lung cancer; [4]): 67.43% | Weight of tumor (Lewis lung cancer; [4]): 0.56 ± 0.22 g | Tumor inhibition rate (Lewis lung cancer; summary of both batches, by gavage): 65.48%
